In PMC12863215, “The vacuolar transporters MaMATE11 and MaMATE14 affect blue flower coloration in grape hyacinth (Muscari)” (Horticulture Research, 2025):

Columns and labels:
MaMATE14 = tested on: T1, MaMATE14; experiment: uptake into yeast microsomal vesicles, HPLC, Lineweaver-Burk; type: biochemical, Muscari aucheri; settings: transport; 5 mM MgATP, 25 mM Tris-MES pH 8.0, 50 mM KCl, 25 °C, 20 min; minus-ATP subtracted
T1 construct: full-length cDNA in pYES2, expressed in Saccharomyces cerevisiae BY4741; microsomal vesicles; 510 residues; 12 predicted transmembrane segments

MaMATE11 = tested on: T2, MaMATE11; experiment: as above; type: biochemical, Muscari aucheri; settings: transport; 5 mM MgATP, 25 mM Tris-MES pH 8.0, 50 mM KCl, 25 °C, 20 min; minus-ATP subtracted
T2 construct: full-length cDNA in pYES2, expressed in Saccharomyces cerevisiae BY4741; microsomal vesicles; 441 residues; 10 predicted transmembrane segments

| SMILES | Km (MaMATE14) [µM] | Km (MaMATE11) [µM] |
| --- | --- | --- |
| OC[C@H]1O[C@@H](Oc2cc3c(O)cc(O)cc3[o+]c2-c2ccc(O)c(O)c2)[C@H](O)[C@@H](O)[C@@H]1O [cyanidin-3-O-glucoside] | 61.4 | 57.5 |
| Oc1ccc([C@H]2Oc3cc(O)cc(O)c3C[C@H]2O)cc1 [(−)-epiafzelechin] | 43.8 | 57.4 |
| OC[C@H]1O[C@@H](Oc2cc3c(O[C@@H]4O[C@H](CO)[C@@H](O)[C@H](O)[C@H]4O)cc(O)cc3[o+]c2-c2ccc(O)c(O)c2)[C@H](O)[C@@H](O)[C@@H]1O [cyanidin-3,5-di-O-glucoside] | 45.3 | 27 |
| O=c1c(O)c(-c2ccc(O)cc2)oc2cc(O[C@@H]3O[C@H](CO)[C@@H](O)[C@H](O)[C@H]3O)cc(O)c12 [kaempferol 7-O-glucoside] | 57.4 | 60.2 |
